Source: PubChem BioAssay AID248 (DTP/NCI, 2004)
Inconclusive results and toxic doses are left out.

Test system: L1210 leukemia ip in BDF1 mice, survival T/C
Assay: NCI In Vivo Anticancer Drug Screen. Data for tumor model L1210 Leukemia (intraperitoneal) in B6D2F1 (BDF1) mice
Details: endpoint: mean survival time, higher = longer survival
Outline: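 Antitumor effect is assessed in tumor-bearing animals. Survival in the compound arm is compared with a vehicle-dosed control arm and expressed as their quotient.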

[1] = dose: 50.0 mg/kg/injection, schedule: Q01DX009 (ip), vehicle: saline with Tween-80
[2] = dose: 100.0 mg/kg/injection, schedule: Q01DX009 (ip), vehicle: saline with Tween-80
[3] = dose: 100.0 mg/kg/injection, schedule: Q04DX003 (ip), vehicle: saline with Tween-80
[4] = dose: 200.0 mg/kg/injection, schedule: Q01DX009 (ip), vehicle: saline with Tween-80
[5] = dose: 200.0 mg/kg/injection, schedule: Q04DX003 (ip), vehicle: saline with Tween-80
[6] = dose: 75.0 mg/kg/injection, schedule: Q01DX001 (ip), vehicle: saline
[7] = dose: 150.0 mg/kg/injection, schedule: Q01DX001 (ip), vehicle: saline
[8] = dose: 50.0 mg/kg/injection, schedule: Q01DX009 (ip), vehicle: saline
[9] = dose: 100.0 mg/kg/injection, schedule: Q01DX009 (ip), vehicle: saline
[10] = dose: 100.0 mg/kg/injection, schedule: Q04DX003 (ip), vehicle: saline
[11] = dose: 100.0 mg/kg/injection, schedule: Q04DX003 (ip), vehicle: Klucel (hydroxypropylcellulose) (HPC)
[12] = dose: 200.0 mg/kg/injection, schedule: Q04DX003 (ip), vehicle: Klucel (hydroxypropylcellulose) (HPC)
[13] = dose: 400.0 mg/kg/injection, schedule: Q04DX003 (ip), vehicle: Klucel (hydroxypropylcellulose) (HPC)

Cc1nc(N)[nH]c(=O)c1CCCc1ccccc1
T/C (dose: 100.0 mg/kg/injection, schedule: Q01DX009 (ip), vehicle: gum acacia): 103 % of control | T/C (dose: 200.0 mg/kg/injection, schedule: Q01DX009 (ip), vehicle: gum acacia): 94 % of control | T/C (dose: 400.0 mg/kg/injection, schedule: Q01DX009 (ip), vehicle: gum acacia): 95 % of control

CNC1(C(N)=O)CCN(Cc2ccccc2)CC1
T/C [1]: 99 % of control | T/C [2]: 94 % of control | T/C [3]: 95 % of control | T/C [4]: 90 % of control | T/C [5]: 101 % of control

COc1cc(CCN)cc(OC)c1OC
T/C [6]: 104 % of control | T/C [7]: 103 % of control | T/C (dose: 300.0 mg/kg/injection, schedule: Q01DX001 (ip), vehicle: saline): 104 % of control

CC(C)C(=O)Nc1cccnc1
T/C (dose: 10.0 mg/kg/injection, schedule: Q01DX001 (ip), vehicle: saline): 100 % of control | T/C (dose: 20.0 mg/kg/injection, schedule: Q01DX001 (ip), vehicle: saline): 103 % of control | T/C (dose: 40.0 mg/kg/injection, schedule: Q01DX001 (ip), vehicle: saline): 94 % of control

c1ccc2c(N=NSc3ncnc4nc[nH]c34)c3ccccc3nc2c1
T/C (dose: 5.0 mg/kg/injection, schedule: Q01DX001 (ip), vehicle: carboxymethylcellulose (CMC)): 105 % of control | T/C (dose: 10.0 mg/kg/injection, schedule: Q01DX001 (ip), vehicle: carboxymethylcellulose (CMC)): 115 % of control | T/C (dose: 20.0 mg/kg/injection, schedule: Q01DX001 (ip), vehicle: carboxymethylcellulose (CMC)): 98 % of control | T/C (dose: 40.0 mg/kg/injection, schedule: Q01DX001 (ip), vehicle: carboxymethylcellulose (CMC)): 107 % of control

C=CC[P+](C)(c1ccccc1)c1ccccc1
T/C (dose: 3.13 mg/kg/injection, schedule: Q01DX009 (ip), vehicle: saline): 106 % of control

C=CC(CO)N1CC1 (stereo not given)
T/C (dose: 25.0 mg/kg/injection, schedule: Q01DX001 (ip), vehicle: carboxymethylcellulose (CMC)): 101 % of control | T/C (dose: 50.0 mg/kg/injection, schedule: Q01DX001 (ip), vehicle: carboxymethylcellulose (CMC)): 103 % of control

CCCCCCCCCCCCCCCCCCOB(OCCCCCCCCCCCCCCCCCC)OCCCCCCCCCCCCCCCCCC
T/C [3]: 108 % of control | T/C [5]: 108 % of control | T/C (dose: 400.0 mg/kg/injection, schedule: Q04DX003 (ip), vehicle: saline with Tween-80): 97 % of control

CCCCCCCCN/N=C(/C)CCCCCO
T/C (dose: 100.0 mg/kg/injection, schedule: Q01DX001 (ip), vehicle: saline): 98 % of control | T/C (dose: 200.0 mg/kg/injection, schedule: Q01DX001 (ip), vehicle: saline): 103 % of control | T/C (dose: 400.0 mg/kg/injection, schedule: Q01DX001 (ip), vehicle: saline): 103 % of control

Nc1nc(SCC(=O)c2ccccc2)c2[nH]cnc2n1
T/C (dose: 117.0 mg/kg/injection, schedule: Q01DX009 (ip), vehicle: saline with Tween-80): 153 % of control | T/C (dose: 176.0 mg/kg/injection, schedule: Q01DX009 (ip), vehicle: saline with Tween-80): 151 % of control | T/C [4]: 104 % of control | T/C (dose: 264.0 mg/kg/injection, schedule: Q01DX009 (ip), vehicle: saline with Tween-80): 156 % of control | T/C (dose: 400.0 mg/kg/injection, schedule: Q01DX009 (ip), vehicle: saline with Tween-80): 152 % of control

O=C(NCCCCNC(=O)Nc1ccc(C2=NCCN2)cc1)Nc1ccc(C2=NCCN2)cc1
T/C (dose: 8.0 mg/kg/injection, schedule: Q01DX Z (ip), vehicle: carboxymethylcellulose (CMC)): 88 % of control | T/C (dose: 16.0 mg/kg/injection, schedule: Q01DX Z (ip), vehicle: carboxymethylcellulose (CMC)): 92 % of control | T/C (dose: 31.0 mg/kg/injection, schedule: Q01DX Z (ip), vehicle: carboxymethylcellulose (CMC)): 101 % of control | T/C (dose: 62.0 mg/kg/injection, schedule: Q01DX Z (ip), vehicle: carboxymethylcellulose (CMC)): 123 % of control | T/C (dose: 125.0 mg/kg/injection, schedule: Q01DX Z (ip), vehicle: carboxymethylcellulose (CMC)): 112 % of control

CC(C)(C)CN
T/C [8]: 98 % of control | T/C [9]: 93 % of control | T/C [10]: 102 % of control | T/C (dose: 200.0 mg/kg/injection, schedule: Q04DX003 (ip), vehicle: saline): 98 % of control

COc1ccc(C(C(C(C)=O)C(C)=O)C(C(C)=O)C(C)=O)cc1
T/C [3]: 100 % of control | T/C [5]: 93 % of control

C/C(C(=O)O)=C(/Br)c1ccc([N+](=O)[O-])cc1
T/C (dose: 100.0 mg/kg/injection, schedule: Q01DX009 (ip), vehicle: Klucel (hydroxypropylcellulose) (HPC)): 94 % of control | T/C [11]: 94 % of control | T/C (dose: 200.0 mg/kg/injection, schedule: Q01DX009 (ip), vehicle: Klucel (hydroxypropylcellulose) (HPC)): 95 % of control | T/C [12]: 100 % of control | T/C (dose: 400.0 mg/kg/injection, schedule: Q01DX009 (ip), vehicle: Klucel (hydroxypropylcellulose) (HPC)): 92 % of control | T/C [13]: 100 % of control

Cc1c(Cl)c(N(C)S(=O)(=O)c2ccccc2)c(C)c(Cl)c1N(C)S(=O)(=O)c1ccccc1
T/C [11]: 103 % of control | T/C [12]: 96 % of control | T/C [13]: 95 % of control

C=C(C)C(=O)OCC(O)C[N+](C)(C)C (stereo not given)
T/C (dose: 25.0 mg/kg/injection, schedule: Q01DX009 (ip), vehicle: saline): 98 % of control | T/C [8]: 101 % of control | T/C [6]: 101 % of control | T/C [9]: 97 % of control | T/C [7]: 98 % of control

CC(C)C(CCN1CCCCC1)(CNC1=NCCN1)c1cccc2ccccc12 (stereo not given)
T/C (dose: 3.12 mg/kg/injection, schedule: Q04DX002 (ip), vehicle: Klucel (hydroxypropylcellulose) (HPC)): 103 % of control | T/C (dose: 5.0 mg/kg/injection, schedule: Q01DX009 (ip), vehicle: Klucel (hydroxypropylcellulose) (HPC)): 99 % of control | T/C (dose: 6.25 mg/kg/injection, schedule: Q04DX002 (ip), vehicle: Klucel (hydroxypropylcellulose) (HPC)): 100 % of control | T/C (dose: 10.0 mg/kg/injection, schedule: Q01DX009 (ip), vehicle: Klucel (hydroxypropylcellulose) (HPC)): 102 % of control | T/C (dose: 12.5 mg/kg/injection, schedule: Q04DX002 (ip), vehicle: Klucel (hydroxypropylcellulose) (HPC)): 103 % of control | T/C (dose: 12.5 mg/kg/injection, schedule: Q04DX003 (ip), vehicle: Klucel (hydroxypropylcellulose) (HPC)): 92 % of control | T/C (dose: 20.0 mg/kg/injection, schedule: Q01DX009 (ip), vehicle: Klucel (hydroxypropylcellulose) (HPC)): 89 % of control | T/C (dose: 25.0 mg/kg/injection, schedule: Q04DX003 (ip), vehicle: Klucel (hydroxypropylcellulose) (HPC)): 97 % of control | T/C (dose: 50.0 mg/kg/injection, schedule: Q04DX003 (ip), vehicle: Klucel (hydroxypropylcellulose) (HPC)): 90 % of control

COc1ccc(OC)c(CCN)c1
T/C (dose: 25.0 mg/kg/injection, schedule: Q01DX009 (ip), vehicle: saline with Tween-80): 98 % of control | T/C [1]: 105 % of control | T/C [2]: 104 % of control | T/C [10]: 107 % of control
